What all share (test): Antifungal MIC, broth dilution
One experiment relates to C. albicans ATCC 24433. Type of experiment: cell-based, Candida albicans. As to conditions: end point 48 hours; for Ca01 A: MIC80 / Ca01 B: MIC50: RPMI 1640 with MOPS; for MIC80 / MIC50: Candida albicans, ATCC24433, RPMI 1640 with MOPS; for MIC80: read-out: Ca01 A: MIC80; for MIC50: read-out: Ca01 B: MIC50. As for the experimental part: (§1) The compounds of Formula 1 were tested for antifungal activity against Candida albicans, Aspergillus niger and Fusarium proliferatum. In vitro evaluation of antifungal activity was performed by determining the minimum inhibitory concentration (MIC) following standard methods (CLSI: Reference method for broth dilution antifungal susceptibility testing of yeasts; Approved standard, second edition M27-A2, 2002; CLSI: Reference method for broth dilution antifungal susceptibility testing of filamentous fungi; Approved standard M38-A, 2002). Anti-fungal susceptibility testing of these anti-fungal compounds was done by broth dilution method using RPMI 1640 medium with MOPS buffer. Known anti-fungal agents like fluconazole and amphotericin-B were used as positive control. End points were determined after 48 hours visually and by using spectrophotometer wherever necessary. Different dilutions were tried and various sets of experiments performed. The activity parameters are enumerated in Table 5.

The subject of a further experiment is C. glabrata ATCC 90030. Type of experiment: cell-based. As to conditions: end point 48 hours; for Cg01 MIC50: RPMI 1640 with MOPS; for MIC50: Nakaseomyces glabratus, ATCC90030, RPMI 1640 with MOPS, read-out: Cg01 MIC50.
The subject of another experiment is C. krusei ATCC 6258. Type of experiment: cell-based. As to conditions: end point 48 hours; for Ck01 MIC50: RPMI 1640 with MOPS; for MIC50: Pichia kudriavzevii, ATCC6258, RPMI 1640 with MOPS, read-out: Ck01 MIC50.
Another experiment deals with C. tropicalis ATCC 750. Type of experiment: cell-based. Conditions: end point 48 hours; for Ct01 MIC50: RPMI 1640 with MOPS; for MIC50: Candida tropicalis, ATCC750, RPMI 1640 with MOPS, read-out: Ct01 MIC50.
Another experiment deals with C. neoformans ATCC 34664. Type of experiment: cell-based. Conditions: end point 48 hours; for Cn01 MIC50: RPMI 1640 with MOPS; for MIC50: Cryptococcus neoformans, ATCC34664, RPMI 1640 with MOPS, read-out: Cn01 MIC50.
For the next experiment, the system named is A. niger ATCC 16404. Type of experiment: cell-based, Aspergillus niger. As to conditions: end point 48 hours; for An01 MIC50: RPMI 1640 with MOPS; for MIC50: Aspergillus niger, ATCC16404, RPMI 1640 with MOPS, read-out: An01 MIC50. As for the experimental part: as §1
The subject of the next experiment is A. fumigatus ATCC 46645. Type of experiment: cell-based. Conditions: end point 48 hours; for Afm01 MIC50: RPMI 1640 with MOPS; for MIC50: Aspergillus fumigatus, ATCC46645, RPMI 1640 with MOPS, read-out: Afm01 MIC50.
For experiment [1], the system named is F. proliferatum ATCC 10052. Type of experiment: cell-based, Fusarium proliferatum. Conditions: end point 48 hours; for Fp01 MIC50: RPMI 1640 with MOPS; for MIC50: Fusarium proliferatum, ATCC10052, RPMI 1640 with MOPS, read-out: Fp01 MIC50. As for the experimental part:
as §1

Values after ≈ are worked out from the molar mass of the structure shown. Some results are limits rather than exact numbers.

For `CCCCCCCCOc1ccc(C(=O)/C=C/c2ccc(OCC(O)(Cn3cncn3)c3ccc(F)cc3F)cc2)cc1` (stereo not drawn) [Compound 1A-24], in the experiment on C. albicans ATCC 24433, the “Ca01 A: MIC80” value was found to be 8 µg/mL and the “Ca01 B: MIC50” value was 4 µg/mL. For the same compound, the “Cg01 MIC50” value in the experiment on C. glabrata ATCC 90030 was 0.12 µg/mL. In addition, the “Ck01 MIC50” value with C. krusei ATCC 6258 is above 4 µg/mL. In addition, the “Ct01 MIC50” value in the experiment with C. tropicalis ATCC 750 is above 4 µg/mL. Moreover, the “Cn01 MIC50” value with C. neoformans ATCC 34664 is above 4 µg/mL. Moreover, the “An01 MIC50” value with A. niger ATCC 16404 was above 4 µg/mL. Moreover, in the experiment on A. fumigatus ATCC 46645, the “Afm01 MIC50” value is above 4 µg/mL. For the same compound, the “Fp01 MIC50” value in experiment [1] is above 4 µg/mL.

Consider `CC(=O)/C=C/c1ccc(OCC(O)(Cn2cncn2)c2ccc(F)cc2F)cc1` (stereo not drawn) [Compound 1A-25], for which the MIC80 (usually an inhibitory concentration at the 80% level, which refers to growth in some studies and to a panel of isolates in others) with C. albicans ATCC 24433 was determined as 0.25 µg/mL (≈ 0.626 µM). Also, the MIC50 (as a rule, an inhibitory concentration at the 50% level, which refers to growth in some studies and to a panel of isolates in others) was found to be 0.12 µg/mL (≈ 0.3 µM) in the experiment on C. albicans ATCC 24433; 0.12 µg/mL (≈ 0.3 µM) in the experiment on C. glabrata ATCC 90030; 8 µg/mL (≈ 20 µM) with C. krusei ATCC 6258; 2 µg/mL (≈ 5.01 µM) with C. tropicalis ATCC 750; 4 µg/mL (≈ 10 µM) with C. neoformans ATCC 34664; 8 µg/mL (≈ 20 µM) in the experiment with A. niger ATCC 16404. The figures for the MIC50 (with A. fumigatus ATCC 46645; in experiment [1]) were 8 µg/mL (≈ 20 µM) and above 128 µg/mL, respectively.

Take `CCCCCC(=O)/C=C/c1ccc(OCC(O)(Cn2cncn2)c2ccc(F)cc2F)cc1` (stereo not drawn) [Compound 1A-26]: the MIC80 in the experiment on C. albicans ATCC 24433 was determined as 0.25 µg/mL (≈ 0.549 µM). The MIC50 is 0.12 µg/mL (≈ 0.263 µM) in the experiment with C. albicans ATCC 24433; 0.06 µg/mL (≈ 0.132 µM) in the experiment with C. glabrata ATCC 90030; 1 µg/mL (≈ 2.2 µM) with C. krusei ATCC 6258; 2 µg/mL (≈ 4.39 µM) with C. tropicalis ATCC 750; 0.5 µg/mL (≈ 1.1 µM) in the experiment with C. neoformans ATCC 34664; above 4 µg/mL in the experiment on A. niger ATCC 16404. Also, the MIC50 (with A. fumigatus ATCC 46645; in experiment [1]) was above 4 µg/mL each time.

Regarding `CCCCCCCCCCCCCCC(=O)/C=C/c1ccc(OCC(O)(Cn2cncn2)c2ccc(F)cc2F)cc1` (stereo not drawn) [Compound 1A-27], in the experiment on C. albicans ATCC 24433, the “Ca01 A: MIC80” value is above 1 µg/mL and the “Ca01 B: MIC50” value was above 1 µg/mL. For the same compound, the “Cg01 MIC50” value in the experiment with C. glabrata ATCC 90030 was above 1 µg/mL. In the experiment with C. krusei ATCC 6258, the “Ck01 MIC50” value was above 1 µg/mL. Besides, the “Ct01 MIC50” value in the experiment on C. tropicalis ATCC 750 was above 1 µg/mL. The “Cn01 MIC50” value in the experiment with C. neoformans ATCC 34664 was above 1 µg/mL. The “An01 MIC50” value in the experiment on A. niger ATCC 16404 was above 1 µg/mL. Moreover, the “Afm01 MIC50” value with A. fumigatus ATCC 46645 is above 1 µg/mL. The “Fp01 MIC50” value in experiment [1] was above 1 µg/mL.

On to `O=C(/C=C/c1ccc(OCC(O)(Cn2cncn2)c2ccc(F)cc2F)cc1)C1CC1` (stereo not drawn) [Compound 1A-28], for which, in the experiment on C. albicans ATCC 24433, the “Ca01 A: MIC80” value came to 0.06 µg/mL and the “Ca01 B: MIC50” value is 0.015 µg/mL. For the same compound, the “Cg01 MIC50” value in the experiment on C. glabrata ATCC 90030 was determined as 0.03 µg/mL. Also, the “Ck01 MIC50” value in the experiment on C. krusei ATCC 6258 worked out at 1 µg/mL. In addition, the “Ct01 MIC50” value with C. tropicalis ATCC 750 is 0.25 µg/mL. Also, the “Cn01 MIC50” value in the experiment on C. neoformans ATCC 34664 was determined as 2 µg/mL. Moreover, in the experiment on A. niger ATCC 16404, the “An01 MIC50” value was 8 µg/mL. The “Afm01 MIC50” value in the experiment with A. fumigatus ATCC 46645 came to 16 µg/mL. Besides, in experiment [1], the “Fp01 MIC50” value is above 16 µg/mL.

Consider `COc1cc(/C=C/C=O)ccc1OCC(O)(Cn1cncn1)c1ccc(F)cc1F` (stereo not drawn) [Compound 1A-29], for which the MIC80 with C. albicans ATCC 24433 worked out at 0.5 µg/mL (≈ 1.2 µM). Also, the MIC50 is 0.25 µg/mL (≈ 0.602 µM) in the experiment on C. albicans ATCC 24433; 1 µg/mL (≈ 2.41 µM) in the experiment with C. glabrata ATCC 90030; 32 µg/mL (≈ 77 µM) with C. krusei ATCC 6258; 8 µg/mL (≈ 19.3 µM) in the experiment on C. tropicalis ATCC 750; 16 µg/mL (≈ 38.5 µM) with C. neoformans ATCC 34664; above 64 µg/mL in the experiment with A. niger ATCC 16404. Also, the MIC50 (in the experiment with A. fumigatus ATCC 46645; in experiment [1]) was above 64 µg/mL each time.

Regarding `O=C(c1ccc(OCC(O)(Cn2cncn2)c2ccc(F)cc2F)cc1)C(Br)C(Br)c1ccc(Cl)cc1Cl` (stereo not drawn) [Compound 1B-1, 2,3-Dibromo-3-(2,4-dichlorophenyl)-1-(4-(2-(2,4-difluorophenyl)-2-hydroxy-3-(1H-1,2,4-triazol-1-yl)propoxy)phenyl)propan-1-one], the MIC80 with C. albicans ATCC 24433 came to 0.5 µg/mL (≈ 0.724 µM). The MIC50 in the experiment with C. albicans ATCC 24433 is 0.25 µg/mL (≈ 0.362 µM); in the experiment on C. glabrata ATCC 90030, 0.5 µg/mL (≈ 0.724 µM); in the experiment with C. krusei ATCC 6258, 2 µg/mL (≈ 2.9 µM); in the experiment with C. tropicalis ATCC 750, 1 µg/mL (≈ 1.45 µM); in the experiment with C. neoformans ATCC 34664 it was 0.5 µg/mL (≈ 0.724 µM); in the experiment on A. niger ATCC 16404 it was above 8 µg/mL. For the same compound, the MIC50 (in the experiment on A. fumigatus ATCC 46645; in experiment [1]) was above 8 µg/mL throughout.

These data come from US9512087B2, “Hybrid molecules containing pharmacophores of fluconazole as antifungal agents and their preparation” (Council for Scientific & Industrial Research, priority 2011, dated 2016).
